Results as given in patent US20260223850A1, “SUBSTITUTED PYRROLIDONE COMPOUND, PREPARATION METHOD THEREFOR, COMPOSITION AND APPLICATION THEREOF” (QINGDAO KINGAGROOT CHEMICAL COMPOUND CO., LTD., priority 2023, published 2026).

Tests used:
Type in all cases: in vivo
[1] = test system: Leptochloa chinensis; experiment: Seedling stage sealing experiment for water-seeding; conditions: 120 g a.i./ha, 15 days, fresh weight control rate
Excerpt: (1) Seedling Stage Sealing Experiment for Water-Seeding:
The activity level criteria for plant damage (i.e., growth control rate) are as follows: • Level 9: completely dead; • Level 8: growth control rate greater than or equal to 90% and less than 100%; • Level 7: growth control rate greater than or equal to 80% and less than 90%; • Level 6: growth control rate greater than or equal to 70% and less than 80%; • Level 5: growth control rate greater than or equal to 50% and less than 70%; • Level 4: growth control rate greater than or equal to 30% and less than 50%; • Level 3: growth control rate greater than or equal to 20% and less than 30%; • Level 2: growth control rate greater than or equal to 10% and less than 20%; • Level 1: growth control rate less than 10%; • Level 0: no effect.
The above growth control rates are fresh weight control rates.
Echinochloa phyllopogon, Digitaria sanguinalis, Huaidao (rice cultivar), etc. were broadcasted on the surface of nutrition bowls filled with soil and fully covered by soil. The foregoing well-prepared nutrition bowls were then placed in a cultivation box with water filled to a suitable height to keep the soil in the nutrition bowls moist. A test compound of the present invention was individually dissolved with acetone, then diluted into solution of a certain concentration using a certain amount of water, and sprayed using a spray tower. The plants were placed on a greenhouse seedbed and cultured for 15 days, and the experimental results were then collected. The compound was applied at 120, 60, 30 and 15 g a.i./ha in triplicate, and the results were averaged.

[2] = test system: Echinochloa crusgalli; experiment: as above; conditions: 120 g a.i./ha, 15 days, fresh weight control rate
[3] = test system: Echinochloa phyllopogon; experiment: as above; conditions: 120 g a.i./ha, 15 days, fresh weight control rate
Summary of the method: (§1)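 Seeds broadcast on soil in nutrition bowls, covered, kept moist in a water-filled box; compound in acetone diluted with water and spray-tower applied at 120, 60, 30 and 15 g a.i./ha, triplicate. Scored after 15 days in greenhouse on a 0–9 scale of fresh-weight growth control, averaged.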

[4] = test system: Huaidao (rice cultivar); experiment: Seedling stage sealing experiment for water-seeding (crop safety); conditions: 120 g a.i./ha, 15 days, fresh weight control rate; for Huaidao (rice cultivar) plant damage level (growth control rate): spray, seedling stage sealing for water-seeding
Summary of the method: as §1

[5] = spray, seedling stage sealing for water-seeding

Compound | Leptochloa chinensis activity level (growth control rate) [1] | Echinochloa crusgalli activity level (growth control rate) ([2]; seedling stage sealing) | Echinochloa phyllopogon activity level (growth control rate) ([3]; seedling stage sealing) | Huaidao (rice cultivar) plant damage level (growth control rate) [4] | Echinochloa crusgalli activity level (growth control rate) [2, 5] | Echinochloa phyllopogon activity level (growth control rate) [3, 5] | Huaidao (rice cultivar) plant damage level ([4]; seedling stage sealing)
CC(C)c1cccc([C@H]2CN(C)C(=O)[C@@H]2C(=O)Nc2cnn(C)c2Cl)c1 [20′] | 9 | 9 | 8 (Level 8: growth control rate greater than or equal to 90% and less than 100%) |  |  |  | 
COc1cccc([C@H]2CN(C)C(=O)[C@@H]2C(=O)Nc2cnn(C)c2Cl)c1 [28′] | 9 | 8 (Level 8: growth control rate greater than or equal to 90% and less than 100%) | 6 (Level 6: growth control rate greater than or equal to 70% and less than 80%) |  |  |  | 
CN1C[C@H](c2cccc(OC(F)(F)F)c2)[C@@H](C(=O)Nc2cnn(C)c2Cl)C1=O [33′] | 9 | 9 | 8 (Level 8: growth control rate greater than or equal to 90% and less than 100%) |  |  |  | 
CN1C[C@H](c2cccc(Oc3ccccc3)c2)[C@@H](C(=O)Nc2cnn(C)c2Cl)C1=O [50′] | 6 (Level 6: growth control rate greater than or equal to 70% and less than 80%) |  |  |  |  |  | 
COc1cc([C@H]2CN(C)C(=O)[C@@H]2C(=O)Nc2cnn(C)c2Cl)cc(C(F)(F)F)c1 [75′] | 9 | 9 | 6 (Level 6: growth control rate greater than or equal to 70% and less than 80%) |  |  |  | 
CN1C[C@H](c2cccc(C(F)(F)F)c2)[C@@H](C(=O)Nc2cnn(CCF)c2Cl)C1=O [98′] | 9 | 9 | 9 |  |  |  | 
CN1C[C@H](c2cccc(C(F)(F)F)c2)[C@@H](C(=O)Nc2cnn(C)c2Br)C1=O [120′] | 9 | 9 | 8 (Level 8: growth control rate greater than or equal to 90% and less than 100%) |  |  |  | 
CN1C[C@H](c2cccc(I)c2)[C@@H](C(=O)Nc2cnn(C)c2Cl)C1=O [125′] | 9 | 9 | 9 |  |  |  | 
CN1C[C@H](c2cccc(Br)c2)[C@@H](C(=O)Nc2cnn(C)c2Cl)C1=O [126′] | 9 | 9 | 9 |  |  |  | 
C=Cc1cccc([C@H]2CN(C)C(=O)[C@@H]2C(=O)Nc2cnn(C)c2Cl)c1 [149′] | 5 (Level 5: growth control rate greater than or equal to 50% and less than 70%) | 5 (Level 5: growth control rate greater than or equal to 50% and less than 70%) |  |  |  |  | 
CN1C[C@H](c2cccc(C(F)(F)F)c2)[C@@H](C(=O)Nc2cnn(C(C)(C)C)c2Cl)C1=O [157′] | 7 (Level 7: growth control rate greater than or equal to 80% and less than 90%) | 5 (Level 5: growth control rate greater than or equal to 50% and less than 70%) |  |  |  |  | 
CN1C[C@H](c2cccc(C(F)(F)F)c2)[C@@H](C(=O)Nc2cnn(CC3CC3)c2Cl)C1=O [165′] | 6 (Level 6: growth control rate greater than or equal to 70% and less than 80%) |  |  |  |  |  | 
COc1cc(OC)cc([C@H]2CN(C)C(=O)[C@@H]2C(=O)Nc2cnn(C)c2C2CC2)c1 [301′] | 6 (Level 6: growth control rate greater than or equal to 70% and less than 80%) |  |  |  |  |  | 
COc1cc([C@H]2CN(C)C(=O)[C@@H]2C(=O)Nc2cnn(C)c2Cl)ccc1C(F)(F)F [316′] | 6 (Level 6: growth control rate greater than or equal to 70% and less than 80%) | 6 (Level 6: growth control rate greater than or equal to 70% and less than 80%) |  |  |  |  | 
Cc1cc(Cl)cc([C@H]2CN(C)C(=O)[C@@H]2C(=O)Nc2cnn(C(F)F)c2Cl)c1 [505′] |  |  |  | 2 (Level 2: growth control rate greater than or equal to 10% and less than 20%) | 9 | 9 | 
Cc1cc(Cl)cc([C@H]2CN(C)C(=O)[C@@H]2C(=O)Nc2cnn(C)c2C2CC2)c1 [506′] |  |  |  | 0 | 9 | 9 | 
CN1C[C@H](c2cc(F)cc(Cl)c2)[C@@H](C(=O)Nc2cnn(C)c2Cl)C1=O [507′] |  |  |  | 0 | 9 | 9 | 
CN1C[C@H](c2cc(C(F)(F)F)cc(C(F)(F)F)c2)[C@@H](C(=O)Nc2cnn(C)c2C2CC2)C1=O [510′] |  |  |  | 2 (Level 2: growth control rate greater than or equal to 10% and less than 20%) | 9 | 9 | 
CN1C[C@H](c2cc(Br)cc(C(F)F)c2)[C@@H](C(=O)Nc2cnn(C)c2Cl)C1=O [511′] |  |  |  | 0 | 9 | 6 (Level 6: growth control rate greater than or equal to 70% and less than 80%) | 
CN1C[C@H](c2cc(Br)cc(C(F)F)c2)[C@@H](C(=O)Nc2cnn(C(F)F)c2Cl)C1=O [512′] |  |  |  | 0 | 9 | 7 (Level 7: growth control rate greater than or equal to 80% and less than 90%) | 
CN1C[C@H](c2cc(Br)cc(C(F)(F)F)c2)[C@@H](C(=O)Nc2cnn(C)c2C2CC2)C1=O [514′] |  |  |  | 0 | 9 | 6 (Level 6: growth control rate greater than or equal to 70% and less than 80%) | 
Cc1cc([C@H]2CN(C)C(=O)[C@@H]2C(=O)Nc2cnn(C)c2Br)cc(C)c1C [516′] |  |  |  | 0 | 9 | 9 | 
Cc1cc([C@H]2CN(C)C(=O)[C@@H]2C(=O)Nc2cnn(C)c2C#N)cc(C)c1C [518′] |  |  |  | 0 | 9 | 9 | 
CN1C[C@H](c2cc(Cl)cc(Cl)c2)[C@@H](C(=O)Nc2cnn(C)c2Cl)C1=O [519′] |  |  |  | 1 (Level 1: growth control rate less than 10%) | 9 | 9 | 
Cc1csc([C@H]2CN(C)C(=O)[C@@H]2C(=O)Nc2cnn(C)c2Cl)c1 [520′] |  |  |  | 0 | 9 | 7 (Level 7: growth control rate greater than or equal to 80% and less than 90%) | 
CN1CC(c2cccc(OCC3CC3)c2)C(C(=O)Nc2cnn(C)c2Cl)C1=O (stereo not drawn) [Compound 39] | 9 | 6 (Level 6: growth control rate greater than or equal to 70% and less than 80%) |  |  |  |  | 
CN1CC(c2cccc(OC3CCCC3)c2)C(C(=O)Nc2cnn(C)c2Cl)C1=O (stereo not drawn) [Compound 41] | 6 (Level 6: growth control rate greater than or equal to 70% and less than 80%) | 5 (Level 5: growth control rate greater than or equal to 50% and less than 70%) |  |  |  |  | 
CN1CC(c2cccc(C(F)(F)F)c2)C(C(=O)Nc2c(Cl)nn(C)c2Cl)C1=O (stereo not drawn) [Compound 94] |  | 5 (Level 5: growth control rate greater than or equal to 50% and less than 70%) | 5 (Level 5: growth control rate greater than or equal to 50% and less than 70%) |  |  |  | 0
Cn1ncc(NC(=O)C2C(=O)NCC2c2cccc(C(F)(F)F)c2)c1Cl (stereo not drawn) [Compound 100] | 6 (Level 6: growth control rate greater than or equal to 70% and less than 80%) | 6 (Level 6: growth control rate greater than or equal to 70% and less than 80%) |  |  |  |  | 
Cc1cc(C2CN(C)C(=O)C2C(=O)Nc2cnn(C)c2C(F)(F)F)cc(C)c1C (stereo not drawn) [Compound 517] |  |  |  | 0 | 9 | 9 | 
